In one assay the target is rat TAAR1 (Rattus norvegicus (Rat), UniProt Q923Y9). In words: Radioligand binding assay on rat TAAR1. The note with it: rat TAAR1, membranes of stably transfected HEK-293 cells; second value of mouse/rat pair. Put shortly:
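Competition binding with [3H]-(S)-4-[(ethyl-phenyl-amino)-methyl]-4,5-dihydro-oxazol-2-ylamine on membranes from HEK293 cells stably expressing rat TAAR1, in HEPES-NaOH pH 7.4. Compounds spanned 10 pM-10 μM in duplicate, incubated 1 h at 4 °C, with nonspecific binding set by 10 μM unlabeled ligand. Filtration followed by scintillation counting.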

A further assay concerns the target mouse TAAR1 (Mus musculus (Mouse), UniProt Q923Y8). The experiment in a line: Radioligand binding assay on mouse TAAR1. The note with it: mouse TAAR1, membranes of stably transfected HEK-293 cells; first value of mouse/rat pair. The procedure, abridged:
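Membranes from HEK293 cells stably expressing mouse TAAR1, in HEPES-NaOH pH 7.4; displacement of ³H-(S)-4-[(ethyl-phenyl-amino)-methyl]-4,5-dihydro-oxazol-2-ylamine, nonspecific binding with 10 μM unlabeled ligand.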

Molecules are shown by their SMILES.

Chain of mouse TAAR1 (Q923Y8 whole entry): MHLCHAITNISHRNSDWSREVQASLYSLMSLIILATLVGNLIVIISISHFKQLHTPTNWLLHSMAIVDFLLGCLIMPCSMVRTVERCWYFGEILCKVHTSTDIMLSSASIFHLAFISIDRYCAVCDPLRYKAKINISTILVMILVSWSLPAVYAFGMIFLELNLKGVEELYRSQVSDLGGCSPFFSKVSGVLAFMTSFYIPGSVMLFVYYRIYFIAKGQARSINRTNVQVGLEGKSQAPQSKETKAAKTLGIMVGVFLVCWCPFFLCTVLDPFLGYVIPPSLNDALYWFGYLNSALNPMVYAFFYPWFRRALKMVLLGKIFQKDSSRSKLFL
Chain of rat TAAR1 (Q923Y9 whole entry): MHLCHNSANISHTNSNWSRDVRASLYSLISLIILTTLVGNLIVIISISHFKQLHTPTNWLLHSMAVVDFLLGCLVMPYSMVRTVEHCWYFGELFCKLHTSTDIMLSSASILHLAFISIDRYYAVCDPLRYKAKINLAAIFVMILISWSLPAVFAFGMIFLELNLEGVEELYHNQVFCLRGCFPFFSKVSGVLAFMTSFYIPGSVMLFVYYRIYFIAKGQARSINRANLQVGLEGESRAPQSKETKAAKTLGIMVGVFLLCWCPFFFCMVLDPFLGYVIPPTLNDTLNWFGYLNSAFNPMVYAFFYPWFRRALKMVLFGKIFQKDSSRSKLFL

Usually Ki stands for a measure of affinity in units of concentration, obtained from inhibition or displacement. With `N[C@H]1CCc2cc(Nc3ccc(F)cc3)ccc2C1` [Example 66, (S)—N6-(4-Fluorophenyl)-1,2,3,4-tetrahydronaphthalene-2,6-diamine], the Ki was determined as 0.024 µM at rat TAAR1 and 0.171 µM at mouse TAAR1.
On to `COc1cccc(NC(=O)Nc2ccc3c(c2)CC[C@H](N)C3)c1` [Example 67, (S)-1-(6-Amino-5,6,7,8-tetrahydronaphthalen-2-yl)-3-(3-methoxyphenyl)urea], for which the results for the Ki on rat TAAR1 and at mouse TAAR1 were 0.0044 µM and 0.0075 µM, respectively.
For the molecule `N[C@H]1CCc2cc(Nc3cccc(Cl)c3)ccc2C1` [Example 68, (S)—N6-(3-Chlorophenyl)-1,2,3,4-tetrahydronaphthalene-2,6-diamine], the Ki at rat TAAR1 amounted to 0.0099 µM; on mouse TAAR1 it was 0.019 µM.
For `N[C@H]1CCc2cc(NC(=O)NCc3ccc(Cl)cc3)ccc2C1` [Example 69, (S)-1-(6-Amino-5,6,7,8-tetrahydronaphthalen-2-yl)-3-(4-chlorobenzyl)urea] the same measures were 0.0085 µM and 0.0029 µM.
In the case of `N#Cc1ccc(NC(=O)c2ccc3c(c2)CCC(N)C3)cc1` (stereo not shown) [Example 70], the Ki at rat TAAR1 was determined as 0.0032 µM; on mouse TAAR1, 0.0044 µM.
For `N[C@H]1CCc2cc(NC(=O)Nc3ccc(C4CC4)cc3)ccc2C1` [Example 72, (S)-1-(6-Amino-5,6,7,8-tetrahydronaphthalen-2-yl)-3-(4-cyclopropylphenyl)urea], the results for the Ki at rat TAAR1 and at mouse TAAR1 were 0.0009 µM and 0.001 µM, respectively.
Turning to `N[C@H]1CCc2cc(Nc3ccc(C4CC4)cc3)ccc2C1` [Example 73, (S)—N6-(4-Cyclopropylphenyl)-1,2,3,4-tetrahydronaphthalene-2,6-diamine], the Ki at rat TAAR1 turned out to be 0.0081 µM; on mouse TAAR1 it was 0.01 µM.
The corresponding values for `N[C@H]1CCc2cc(NC(=O)Nc3ccc(Cl)cc3)ccc2C1` [Example 74, (S)-1-(6-Amino-5,6,7,8-tetrahydronaphthalen-2-yl)-3-(4-chlorophenyl)urea] are 0.0005 µM and 0.001 µM.
The corresponding values for `N[C@H]1CCc2c(ccc(NC(=O)c3ccc(Cl)nc3)c2Cl)C1` [Example 76, (S)—N-(6-Amino-1-chloro-5,6,7,8-tetrahydronaphthalen-2-yl)-6-chloronicotinamide] are 0.302 µM and over 1.51 µM.
For `N[C@@H]1CCc2cc(C(=O)Nc3cccc(OC(F)(F)F)c3)ccc2C1` [Example 78, (R)-6-Amino-N-(3-(trifluoromethoxy)phenyl)-5,6,7,8-tetrahydronaphthalene-2-carboxamide] the same measures were 0.0044 µM and 0.0073 µM.
As to `N[C@H]1CCc2cc(C(=O)Nc3cccc(OC(F)(F)F)c3)ccc2C1` [Example 79, (S)-6-Amino-N-(3-(trifluoromethoxy)phenyl)-5,6,7,8-tetrahydronaphthalene-2-carboxamide], the results for the Ki on rat TAAR1 and at mouse TAAR1 were 0.0009 µM and 0.0008 µM, respectively.
Turning to `N[C@H]1COc2cc(Nc3ncc(C(F)(F)F)cn3)ccc2C1` [Example 80, (R)—N7-(5-(Trifluoromethyl)pyrimidin-2-yl)chroman-3,7-diamine], the Ki was determined as 0.0196 µM at rat TAAR1 and 0.0163 µM on mouse TAAR1.
In the case of `CCOc1[nH]nc(C(=O)Nc2ccc3c(c2)OC[C@H](N)C3)c1C` [Example 81, (R)—N-(3-Aminochroman-7-yl)-5-ethoxy-4-methyl-1H-pyrazole-3-carboxamide], the Ki was determined as 0.0277 µM at rat TAAR1 and 0.0082 µM on mouse TAAR1.
With `N[C@H]1COc2cc(NC(=O)c3nccc(Cl)n3)ccc2C1` [Example 82, (R)—N-(3-Aminochroman-7-yl)-4-chloropyrimidine-2-carboxamide], the Ki at rat TAAR1 turned out to be 0.511 µM; at mouse TAAR1 it was 0.173 µM.
Take `Cc1nc(-c2ccc(C(=O)Nc3ccc4c(c3)OC[C@H](N)C4)cc2)cs1` [Example 83, (R)—N-(3-Aminochroman-7-yl)-4-(2-methylthiazol-4-yl)benzamide]: the Ki was 0.0034 µM on rat TAAR1 and 0.0018 µM at mouse TAAR1.
On to `N[C@H]1COc2cc(NC(=O)c3ncc(C(F)(F)F)cn3)ccc2C1` [Example 84, (R)—N-(3-Aminochroman-7-yl)-5-(trifluoromethyl)pyrimidine-2-carboxamide], for which the Ki at rat TAAR1 was determined as 0.0758 µM; on mouse TAAR1, 0.0371 µM.
Take `Cn1nc(C(=O)Nc2ccc3c(c2)OC[C@H](N)C3)cc1-c1cccs1` [Example 85, (R)—N-(3-Aminochroman-7-yl)-1-methyl-5-(thiophen-2-yl)-1H-pyrazole-3-carboxamide]: the Ki amounted to 0.0061 µM at rat TAAR1 and 0.0009 µM at mouse TAAR1.
Turning to `N#Cc1ccc(C(=O)Nc2ccc3c(c2)OC[C@H](N)C3)cc1F` [Example 86, (R)—N-(3-Aminochroman-7-yl)-4-cyano-3-fluorobenzamide], the Ki on rat TAAR1 is 0.0044 µM; at mouse TAAR1, 0.0026 µM.
Turning to `N[C@H]1COc2cc(NC(=O)c3ccc(F)c(F)c3)ccc2C1` [Example 87, (R)—N-(3-Aminochroman-7-yl)-3,4-difluorobenzamide], the values for the Ki at rat TAAR1 and at mouse TAAR1 were 0.0189 µM and 0.0009 µM, respectively.
Take `CCc1n[nH]c(C(=O)Nc2ccc3c(c2)OC[C@H](N)C3)c1C` [Example 88, (R)—N-(3-Aminochroman-7-yl)-3-ethyl-4-methyl-1H-pyrazole-5-carboxamide]: the Ki on rat TAAR1 is 0.0119 µM; at mouse TAAR1, 0.0083 µM.
`Cc1cc(C(=O)Nc2ccc3c(c2)OC[C@H](N)C3)cc(Cl)n1` [Example 89, (R)—N-(3-Aminochroman-7-yl)-2-chloro-6-methylisonicotinamide]: the results for the Ki on rat TAAR1 and on mouse TAAR1 were 0.0243 µM and 0.0088 µM, respectively.
`N[C@H]1COc2cc(NC(=O)c3ccnc(C(F)(F)F)c3)ccc2C1` [Example 90, (R)—N-(3-Aminochroman-7-yl)-2-(trifluoromethyl)isonicotinamide]: the Ki at rat TAAR1 was determined as 0.0096 µM; at mouse TAAR1, 0.0091 µM.
As for `N[C@H]1COc2cc(NC(=O)c3cc(Cl)nc(Cl)c3)ccc2C1` [Example 91, (R)—N-(3-Aminochroman-7-yl)-2,6-dichloroisonicotinamide], the Ki at rat TAAR1 is 0.0077 µM; at mouse TAAR1, 0.0035 µM.
The corresponding values for `CCn1nc(C(=O)Nc2ccc3c(c2)OC[C@H](N)C3)c(Br)c1OCC(F)F` [Example 92, (R)—N-(3-Aminochroman-7-yl)-4-bromo-5-(2,2-difluoroethoxy)-1-ethyl-1H-pyrazole-3-carboxamide] are 0.0023 µM and 0.0151 µM.
Take `N[C@H]1COc2cc(Nc3ncc(Cl)cn3)ccc2C1` [Example 93, (R)—N7-(5-Chloropyrimidin-2-yl)chroman-3,7-diamine]: the Ki at rat TAAR1 was determined as 0.0374 µM; on mouse TAAR1, 0.042 µM.
In the case of `COc1cccc(Nc2ccc3c(c2)CC[C@H](N)C3)c1` [Example 94, (S)—N6-(3-Methoxyphenyl)-1,2,3,4-tetrahydronaphthalene-2,6-diamine], the values for the Ki at rat TAAR1 and at mouse TAAR1 were 0.0462 µM and 0.0541 µM, respectively.

Values taken from patent US9957261B2 (Hoffmann-La Roche Inc., priority 2014, dated 2018).
